# Laboratory results reported in publication PMC6099557, “Cholinesterase Inhibition Activity, Alkaloid Profiling and Molecular Docking of Chilean Rhodophiala (Amaryllidaceae)” (Molecules : A Journal of Synthetic Chemistry and Natural …, 2018).
# Where two headings read alike, the source gives them in different places.
# How the values were obtained:
# [1] = biological target: T1, AchE from Electrophorus electricus (Electrophorus electricus, UniProt O42275); assay: biochemical; settings: AChE inhibitory activity IC50, single alkaloids and reference galanthamine; electric eel AChE
# T1 construct: purchased Merck, Darmstadt, Germany
# T1 sequence (O42275 24-633): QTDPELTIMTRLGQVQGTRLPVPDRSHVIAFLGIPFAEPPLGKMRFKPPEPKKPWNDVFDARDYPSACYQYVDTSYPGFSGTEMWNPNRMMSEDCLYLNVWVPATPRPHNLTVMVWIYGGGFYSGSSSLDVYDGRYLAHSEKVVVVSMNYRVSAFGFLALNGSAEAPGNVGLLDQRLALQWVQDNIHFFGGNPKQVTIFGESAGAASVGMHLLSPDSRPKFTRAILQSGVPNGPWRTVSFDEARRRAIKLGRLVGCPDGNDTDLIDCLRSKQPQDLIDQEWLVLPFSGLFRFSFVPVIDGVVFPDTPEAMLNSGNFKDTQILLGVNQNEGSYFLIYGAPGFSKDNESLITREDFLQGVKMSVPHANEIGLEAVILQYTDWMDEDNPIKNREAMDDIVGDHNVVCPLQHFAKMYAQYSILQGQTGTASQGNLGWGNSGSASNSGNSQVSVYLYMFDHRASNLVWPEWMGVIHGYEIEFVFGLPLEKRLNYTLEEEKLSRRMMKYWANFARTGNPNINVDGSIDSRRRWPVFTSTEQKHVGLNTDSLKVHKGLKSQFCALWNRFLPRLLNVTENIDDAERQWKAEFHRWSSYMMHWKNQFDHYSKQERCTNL
# Protocol: (§1) Cholinesterase inhibitory activities were determined according to [35] with some modifications. Stock solutions with 518U of AchE from Electrophorus electricus (Merck, Darmstadt, Germany) and BuChE from equine serum (Merck, Darmstadt, Germany), respectively, were prepared and kept at −20 °C. Acetylthiocholine iodide (ATCI), S-butyrylthiocholine iodide (BTCI) and 5,5′-dithiobis (2-nitrobenzoic acid) (DTNB) were obtained from Merck (Darmstadt, Germany). Fifty microliters of AChE or BuChE (both enzymes used at 6.24 U) in phosphate buffer (8 mM K2HPO4, 2.3 mM NaH2PO4, 0.15 NaCl, pH 7.5) and 50 μL of the sample dissolved in the same buffer were added to the wells. The plates were incubated for 30 min at room temperature. Then, 100 μL of the substrate solution (0.1 M Na2HPO4, […], and 0.6 mM ATCI or 0.24 mM BTCI in Millipore water, pH 7.5) was added. After 10 min, the absorbance was read at 405 nm in a Labsystem microplate reader (Thermo Fischer, Waltham, MA, USA). Enzyme activity was calculated as percent compared to a control using buffer without any inhibitor. […] In a first step, samples were assessed at 10, 100 and 200 μg/mL towards both enzymes. […] The cholinesterase inhibitory data were analyzed with the software Microsoft Office Excel 2010 (Microsoft, Redmond, WA, USA).
# BuChE from equine serum = biological target: T2, BuChE from equine serum (Equus caballus, UniProt P81908); assay: biochemical
# T2 construct: BuChE from equine serum (Merck, Darmstadt, Germany); purchased Merck, Darmstadt, Germany; host or cells: equine serum
# T2 sequence (P81908 whole entry): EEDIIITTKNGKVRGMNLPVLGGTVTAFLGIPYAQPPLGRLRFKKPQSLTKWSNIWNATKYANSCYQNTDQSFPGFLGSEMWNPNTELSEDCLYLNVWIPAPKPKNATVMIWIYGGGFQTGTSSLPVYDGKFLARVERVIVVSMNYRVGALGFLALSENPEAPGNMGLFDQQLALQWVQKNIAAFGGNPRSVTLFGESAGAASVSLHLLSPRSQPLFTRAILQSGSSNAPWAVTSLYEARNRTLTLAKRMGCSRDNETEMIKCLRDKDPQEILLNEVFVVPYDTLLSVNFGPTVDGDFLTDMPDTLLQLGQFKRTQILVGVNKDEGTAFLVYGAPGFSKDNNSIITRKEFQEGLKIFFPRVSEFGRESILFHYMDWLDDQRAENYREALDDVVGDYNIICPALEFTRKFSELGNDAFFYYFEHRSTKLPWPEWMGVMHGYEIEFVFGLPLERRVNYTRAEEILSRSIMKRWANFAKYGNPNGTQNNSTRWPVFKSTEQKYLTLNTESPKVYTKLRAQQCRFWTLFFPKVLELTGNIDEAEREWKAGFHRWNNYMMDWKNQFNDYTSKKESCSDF
# Protocol: as §1
# human erythrocye AChE = settings: human erythrocyte AChE, tested 0.5–500 μg/mL, cited from earlier work
# human serum BuChE = settings: tested 0.5–500 μg/mL, cited from earlier work
# [2] = system: panel of eight human cancer cell lines; settings: cited from earlier work
# [3] = system: multi-drug resistant breast cell line NCLADR; settings: montanine at 2.5 μg/mL; cited from earlier work
# S. aureus ATCC 6538 = settings: cited from earlier work
# E. coli ATCC 24922 = settings: cited from earlier work
# P. aeruginosa ATCC 27853 = settings: cited from earlier work
# [4] = BuChE inhibitory activity IC50, single alkaloids and reference galanthamine
# [5] = single alkaloids and reference galanthamine, read-out: BuChE inhibitory activity IC50 (converted)
Structure (SMILES),IC50 (BuChE from equine serum; [4]) [µM],Activity on human AChE (in words) (human erythrocye AChE),Activity on human BuChE (in words) (human serum BuChE),also measured
"COc1cc2c(cc1O)CN1CC[C@@]23C=C[C@@H](O)C[C@H]13 [8-O-demethylmaritidine (16), 8-O-demethylmaritidine]",468,presented activity,inactive,IC50 [1]: 414 µM
"OC1C=CC23c4cc5c(cc4CN(CC2O)C3C1)OCO5 (centres unmarked) [11-hydroxyvittatine (20a), 11-hydroxyvittatine]",,,,IC50 (BuChE from equine serum; [5]): > 696 µM; Activity on human AChE (in words) (human erythrocye AChE; listed as 11-hydroxyvitattine): not active; Activity on human BuChE (in words) (human serum BuChE; listed as 11-hydroxyvitattine): not active
"COc1cc2c(cc1O)C13CCC(O)CC1N(CC3)C2 (centres unmarked) [deacetylcantabricine (17), deacetylcantabricine]",> 726,,,IC50 [1]: > 726 µM
"COC1C=CC23c4cc5c(cc4CN(CC2O)C3C1)OCO5 (centres unmarked) [haemanthamine (18a), haemanthamine]",> 664,not active,not active,
"OC1C=CC23c4cc5c(cc4CN(CC2O)C3C1)OCO5 (centres unmarked) [hamayne (20b), hamayne]",,presented activity,inactive,IC50 (BuChE from equine serum; [5]): 168 µM
"O[C@H]1[C@H]2c3cc4c(cc3CN3CCC(=C[C@@H]1O)[C@H]23)OCO4 [lycorine (9), lycorine]",> 696,not active,not active,
CO[C@H]1C=C2[C@H]3C[N@@](Cc4cc5c(cc43)OCO5)[C@H]2C[C@@H]1O [montanine],,,,Activity towards a panel of eight human cancer cell lines [2]: showed activity; Activity on NCLADR compared with doxorubicine [3]: more active than doxorubicine; MIC (S. aureus ATCC 6538): 5 µg/mL; MIC (E. coli ATCC 24922): 5 µg/mL; MIC (P. aeruginosa ATCC 27853): 20 µg/mL
